Laboratory results as given in publication PMC12333026, “Versatile Imidazole Scaffold with Potent Activity against Multiple Apicomplexan Parasites” (ACS Infectious Diseases, 2025).
Read-outs that look alike come from different tables or passages of the source.

Legend:
[1] = tested on: T. gondii tachyzoites, parental control; experiment: Proliferation EC50, host fibroblast nuclei count, parental control; type: cell-based; settings: Toxoplasma gondii
Experimental: (§1) Human Foreskin Fibroblasts (HFF) were cultured in DMEM, with D-glucose (4.5 g/L), L-glutamine, and sodium pyruvate (110 mg/L) (Gibco) that were further supplemented with 10% Fetal Clone 1 serum (FCS)(HyClone), 50 U/mL penicillin (Gibco), […] streptomycin (Gibco), and 1× GlutaMax (Gibco). HFF cells were cultured in T25 flasks (Corning) in a humidified incubator at 37 °C and 5% CO2. For culture, media was replaced with DMEM, as described above, with 1% FCS. Mutant strains were created as described in.
(§2) Presence of desired mutations in parasite lines, TgCDPK1^G128M, TgCDPK1^G128M + TgMAPKL1^L162Q and […] was verified through sequencing. Compounds were dissolved in DMSO and serially diluted 4-fold across the first 10 wells of a 96 well plate, with the highest drug concentration in the first column being 25 μM. The strain of was then added to the first 11 columns of the 96-well plate at a density of 4000 parasites per well. The 11th column contained no compounds, and the 12th column contained no parasites and no compound. After 5 days of incubation at 37 °C and 5% CO2, cells were washed with PBS and fixed with 4% PFA in PBS (Thermo Fisher Scientific, Waltham, MA, USA). After fixing, cells were washed three times with PBS and stained with 300 nM DAPI in PBS before being washed again three times with PBS.
(§3) Images were acquired in an ImageXpress Pico Automated Cell Imaging System (Molecular Devices, San Jose, CA, USA) with a 4× objective using UV fluorescence. Following imaging, ImageXpress software was used to count objects with a fluorescence intensity ≥8 and a size of 12–30 μm, giving a total count of host cell nuclei for each well. EC50 were determined based on the number of remaining fibroblast nuclei using a nonlinear regression analysis with GraphPad Prism software version 10.0.0 for Windows, GraphPad Software, Boston, Massachusetts USA. Each compound was tested in ≥3 experiments in quadruplicate rows.

[2] = tested on: T. gondii RH strain with L162Q substitution in TgMAPKL1; experiment: Proliferation EC50, β-galactosidase readout, TgMAPKL1 L162Q; type: cell-based
Experimental: as §1
An RH strain of with an L162Q substitution in TgMAPKL1 introduced by CRISPR/Cas9 site directed mutagenesis into a clone expressing β-galactosidase was used to determine the EC50s for proliferation. Compounds were dissolved in DMSO and serially diluted 4-fold across the first 11 columns of a 96 well plate from the highest concentration of 25 μM leaving the final column with no drugs. was added to the first 11 columns of the 96 well plate at 4000 parasites per well. The last column contained no compound. Plates were incubated 72 h at 37 °C and 5% CO2. were quantified by spectrophotometrically measuring the β-galactosidase concentration of each well after cell lysis and exposure to chlorophenol red β-galactopyranose (Sigma-Aldrich, St. Louis, MO) substrate. Each compound was tested at least three times in quadruplicate.

[3] = tested on: T. gondii tachyzoites expressing TgCDPK1 G128M; TgMAPKL-1 L162Q; experiment: Proliferation EC50, host fibroblast nuclei count, double mutant; type: cell-based
Experimental: as §1, §2, §3

[4] = tested on: T. gondii RH strain expressing β-galactosidase, parental; experiment: Proliferation EC50, β-galactosidase readout, parental strain; type: cell-based; settings: Toxoplasma gondii, 72 h, read-out: T. gondii EC50 (±SD) CONTROL
PfPKG T618Q = PfPKG T618Q (Plasmodium falciparum, UniProt Q8I719, T618Q); experiment: PfPKG enzyme activity assay, T618Q gatekeeper mutant; type: biochemical, P. falciparum
Experimental: (§4) Direct inhibition of recombinant PfPKG phosphorylation activity was carried out using a previously described nonradioactive assay. The assay evaluates PfPKG activity based on changes in initial ATP concentration via luminescence after enzyme phosphorylation of peptide substrate PKCtide ([…]) (SignalChem, Richmond, BC Canada). Enzyme kinase activity was measured in the presence of 26 μM PKCtide; 50.1 nM PfPKG; and 20 μM cGMP in a buffered solution containing 20 mM β-glycerol-phosphate, 20 mM MgCl2, 25 mM HEPES pH 7.5 (KOH), 0.1% BSA and 2 mM DTT. The reaction was activated by the addition of 10 μM ATP with incubation at 30 °C and 90 rpm agitation for 120 min. […] Each assay plate contained reaction wells with no enzyme, no PKCtide peptide substrate and no cGMP as internal controls.

TgCDPK1-G128M = biological target: T1, TgCDPK1-G128M (Toxoplasma gondii, UniProt Q9BJF5, G128M); experiment: CDPK enzyme activity assay, TgCDPK1 G128M; type: biochemical, T. gondii
T1 construct: made in house
Experimental: (§5) Recombinant expression of PfCDPK1, PfCDPK4, TgCDPK1 WT, TgCDPK1-G128M, CpCDPK1 and CpCDPK1-G152 M were purified as previously described. […] These reactions were performed in a buffer composed of 1 mM EGTA (pH 7.2), 10 mM MgCl2, 20 mM HEPES pH 7.5 (KOH), 0.1% BSA. The reactions were initiated with addition of 10 μM ATP and 2 mM CaCl2 as enzyme activation reagent. Reaction plates were incubated for 90 min with 90 rpm agitation at 30 °C. […] KinaseGlo (Promega) luminescence-based assay in which luminescence is inversely related to kinase activity and […] was used as previously described.

[5] = tested on: T. gondii tachyzoites expressing TgPKG T761Q; experiment: Proliferation EC50, host fibroblast nuclei count, TgPKG T761Q mutant; type: cell-based; settings: for EC50: Toxoplasma gondii, Fibroblast
Experimental: as §1, §2, §3

[6] = tested on: P. falciparum 3D7 (WT) asexual stage parasites; experiment: Growth inhibition assay, asexual stage parasites, WT 3D7; type: cell-based; settings: Plasmodium falciparum; 3D7 asexual stage parasites, 72 h; mean ± SD, n = 1–2
Experimental: (§6) lines were maintained with O+ human erythrocytes (BioIVT). WT 3D7A10 and T618Q parasites were kind gifts from Dr. David Fidock (Columbia University) and Dr. David Baker (London School of Tropical Medicine and Hygiene), respectively. Growth inhibition assays were performed as previously described. Parasites were grown in RPMI 1640 medium (Sigma-Aldrich, St. Louis, MO, U.S.A.) supplemented with 5 mg/mL Albumax (Gibco), 50 μg/mL hypoxanthine (Sigma-Aldrich), 2 mg/mL Na2CO3 (Sigma-Aldrich), 25 mM HEPES, and 50 μg/mL gentamicin (Gibco). The growth assay was initiated with cultures with >80% ring stage parasites, diluted to a parasitemia of 0.4% and a hematocrit of 1%. Parasites were transferred to a 96-well plate with test compounds, vehicle, or DHA as positive control, and maintained for 72 h in 5% CO2, 5% O2, and 90% N2 in a humidified chamber. Parasite viability at 72 h was determined by addition of SYBR Green I nucleic acid stain (Thermo Fisher Scientific, S7563) and Mitotracker Deep Red (Fisher M422426) followed by flow cytometry on a BD FACSVerse using BD FACSuite software. Data acquired were analyzed using Flowjo software. EC50 values were derived by nonlinear regression in Graph Pad Prism 7.

PfPKG [7] = biological target: T2, PfPKG (Plasmodium falciparum, UniProt Q8I719); experiment: PfPKG enzyme activity assay, recombinant WT; type: biochemical
Experimental: as §4

TgCDPK1 WT = biological target: T3, TgCDPK1 WT (Toxoplasma gondii, UniProt Q9BJF5); experiment: biochemical
T3 sequence (Q9BJF5 1-507): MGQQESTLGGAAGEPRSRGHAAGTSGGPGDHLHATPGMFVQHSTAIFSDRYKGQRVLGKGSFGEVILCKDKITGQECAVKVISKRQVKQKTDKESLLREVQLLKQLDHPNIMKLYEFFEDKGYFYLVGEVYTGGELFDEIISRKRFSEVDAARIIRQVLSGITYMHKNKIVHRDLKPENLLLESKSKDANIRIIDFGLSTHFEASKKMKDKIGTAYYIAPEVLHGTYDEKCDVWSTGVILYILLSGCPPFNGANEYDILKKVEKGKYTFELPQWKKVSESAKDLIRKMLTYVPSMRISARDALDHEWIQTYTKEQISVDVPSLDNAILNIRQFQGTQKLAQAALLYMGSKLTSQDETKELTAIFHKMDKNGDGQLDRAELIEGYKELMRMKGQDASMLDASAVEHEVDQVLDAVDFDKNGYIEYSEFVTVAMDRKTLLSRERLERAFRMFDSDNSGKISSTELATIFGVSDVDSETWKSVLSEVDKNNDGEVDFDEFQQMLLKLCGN
Experimental: as §5

[8] = tested on: P. falciparum T618Q asexual stage parasites; experiment: Growth inhibition assay, asexual stage parasites expressing PfPKG T618Q; type: cell-based; settings: Plasmodium falciparum, 72 h, read-out: P. falciparum EC50 (±SD) T618Q
Experimental: as §6

[9] = tested on: T. gondii tachyzoites expressing TgCDPK1 G128M; experiment: Proliferation EC50, host fibroblast nuclei count, TgCDPK1 G128M mutant; type: cell-based
Experimental: as §1, §2, §3

CpCDPK1-G152M = biological target: T4, CpCDPK1-G152M (Cryptosporidium parvum, UniProt A3FQ16, G152M); experiment: CDPK enzyme activity assay, CpCDPK1 G152M; type: biochemical, C. parvum
T4 construct: made in house
Experimental: as §5

PfCDPK1 = biological target: T5, PfCDPK1 (Plasmodium falciparum, UniProt P62344); experiment: CDPK enzyme activity assay, PfCDPK1; type: biochemical, P. falciparum; settings: recombinant enzyme; mean ± SD, n = 2–3 experiments; read-out: enzyme IC50 (±SD) PfCDPK1 WT
T5 construct: made in house
Experimental: as §5

CpCDPK1 = biological target: T6, CpCDPK1 (Cryptosporidium parvum, UniProt A3FQ16); experiment: CDPK enzyme activity assay, CpCDPK1 WT; type: biochemical, C. parvum; settings: Kinase-Glo assay; mean ± SD, n = 2–3 experiments; read-out: CpCDPK1 IC50 (±SD) WT
T6 construct: made in house
Experimental: as §5

PfCDPK4 = biological target: T7, PfCDPK4 (Plasmodium falciparum, UniProt Q8IBS5); experiment: CDPK enzyme activity assay, PfCDPK4; type: biochemical, P. falciparum
T7 construct: made in house
Experimental: as §5

[10] = tested on: strain UGA1 expressing nanoluciferase, replication in HCT-8 cells; experiment: Growth inhibition assay in HCT-8 cells (nanoluciferase strain UGA1); type: cell-based, C. parvum; settings: Cryptosporidium parvum, 48 h, nanoluciferase readout, (±SD), read-out: EC50 of replication measured in HCT-8 cells
Experimental: strain UGA1 transfected to express nanoluciferase (Nluc) and obtained from the University of Arizona after propagation in newborn calves. HCT-8 cells were added to a 384-well plate and allowed to grow for 48 h to reach 75–90% confluence. The medium was removed, and test compounds were added in serial dilutions prior to the addition of 1000 oocysts per well in RPMI 1640 medium supplemented with 10% heat inactivated FBS and 1% penicillin streptomycin. Plates were incubated for 48 h; Nano-Glo luciferase reagent (Promega, Madison, WI) was then added, and the plates were read on an EnVision multilabel plate reader (PerkinElmer, Waltham, MA). EC50 curves were calculated as previously described using Prism v6.07 (GraphPad Software, La Jolla, CA).

PfPKG [11] = biological target: T2, PfPKG; design: method as in number not shown in text; settings: enantiomer comparison; recently reported by the authors, ref number not shown in text; cited from earlier work

T2 sequence (Q8I719 whole entry): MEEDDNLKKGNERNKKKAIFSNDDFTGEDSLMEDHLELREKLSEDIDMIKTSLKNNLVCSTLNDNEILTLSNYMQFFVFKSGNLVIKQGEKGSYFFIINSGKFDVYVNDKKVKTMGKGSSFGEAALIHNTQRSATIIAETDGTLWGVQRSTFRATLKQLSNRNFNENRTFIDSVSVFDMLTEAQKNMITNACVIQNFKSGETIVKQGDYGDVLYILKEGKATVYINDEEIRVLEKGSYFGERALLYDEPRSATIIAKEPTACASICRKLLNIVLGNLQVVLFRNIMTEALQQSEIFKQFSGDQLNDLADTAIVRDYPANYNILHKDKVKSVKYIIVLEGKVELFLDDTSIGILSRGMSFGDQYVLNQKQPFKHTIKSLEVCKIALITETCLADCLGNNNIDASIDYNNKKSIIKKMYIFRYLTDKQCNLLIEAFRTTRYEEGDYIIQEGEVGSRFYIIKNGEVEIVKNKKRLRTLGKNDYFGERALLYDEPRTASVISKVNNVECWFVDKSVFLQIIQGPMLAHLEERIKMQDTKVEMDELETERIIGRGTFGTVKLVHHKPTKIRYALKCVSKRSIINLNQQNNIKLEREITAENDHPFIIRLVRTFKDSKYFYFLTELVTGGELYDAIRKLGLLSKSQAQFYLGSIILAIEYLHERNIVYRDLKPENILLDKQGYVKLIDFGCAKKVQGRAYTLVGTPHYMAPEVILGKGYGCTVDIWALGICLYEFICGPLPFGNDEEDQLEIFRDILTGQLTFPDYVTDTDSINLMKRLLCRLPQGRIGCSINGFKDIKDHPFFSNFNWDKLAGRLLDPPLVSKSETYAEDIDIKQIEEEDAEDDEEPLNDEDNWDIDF
T4 sequence (A3FQ16 whole entry G152M): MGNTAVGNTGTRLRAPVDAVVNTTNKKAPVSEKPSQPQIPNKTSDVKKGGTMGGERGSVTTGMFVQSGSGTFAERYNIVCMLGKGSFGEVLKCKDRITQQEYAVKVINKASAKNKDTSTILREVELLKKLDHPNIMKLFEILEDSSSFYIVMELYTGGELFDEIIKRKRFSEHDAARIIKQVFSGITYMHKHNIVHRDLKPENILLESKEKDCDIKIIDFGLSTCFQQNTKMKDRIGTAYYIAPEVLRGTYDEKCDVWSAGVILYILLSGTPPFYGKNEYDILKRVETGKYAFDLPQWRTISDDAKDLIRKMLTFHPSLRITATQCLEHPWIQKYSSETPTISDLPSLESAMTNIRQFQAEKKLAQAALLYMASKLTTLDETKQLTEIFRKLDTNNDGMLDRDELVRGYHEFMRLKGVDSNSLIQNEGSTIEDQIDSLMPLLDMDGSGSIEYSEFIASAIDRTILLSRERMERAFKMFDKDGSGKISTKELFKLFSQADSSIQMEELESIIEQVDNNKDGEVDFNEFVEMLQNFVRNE
T1 sequence (Q9BJF5 whole entry G128M): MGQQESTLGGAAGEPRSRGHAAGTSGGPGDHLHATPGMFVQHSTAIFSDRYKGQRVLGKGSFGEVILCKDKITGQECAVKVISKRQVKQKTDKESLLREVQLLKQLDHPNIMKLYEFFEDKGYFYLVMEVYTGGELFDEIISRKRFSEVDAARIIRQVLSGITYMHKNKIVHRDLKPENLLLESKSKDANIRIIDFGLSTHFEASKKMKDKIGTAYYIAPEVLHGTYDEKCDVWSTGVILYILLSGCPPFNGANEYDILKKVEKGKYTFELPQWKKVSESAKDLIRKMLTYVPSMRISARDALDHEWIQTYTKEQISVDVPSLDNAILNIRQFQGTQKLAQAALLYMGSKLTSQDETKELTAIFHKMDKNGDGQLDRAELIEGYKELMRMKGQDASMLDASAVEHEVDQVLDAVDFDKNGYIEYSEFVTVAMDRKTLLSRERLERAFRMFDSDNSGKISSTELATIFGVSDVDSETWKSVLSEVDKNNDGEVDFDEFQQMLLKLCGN
T6 sequence (A3FQ16 1-538): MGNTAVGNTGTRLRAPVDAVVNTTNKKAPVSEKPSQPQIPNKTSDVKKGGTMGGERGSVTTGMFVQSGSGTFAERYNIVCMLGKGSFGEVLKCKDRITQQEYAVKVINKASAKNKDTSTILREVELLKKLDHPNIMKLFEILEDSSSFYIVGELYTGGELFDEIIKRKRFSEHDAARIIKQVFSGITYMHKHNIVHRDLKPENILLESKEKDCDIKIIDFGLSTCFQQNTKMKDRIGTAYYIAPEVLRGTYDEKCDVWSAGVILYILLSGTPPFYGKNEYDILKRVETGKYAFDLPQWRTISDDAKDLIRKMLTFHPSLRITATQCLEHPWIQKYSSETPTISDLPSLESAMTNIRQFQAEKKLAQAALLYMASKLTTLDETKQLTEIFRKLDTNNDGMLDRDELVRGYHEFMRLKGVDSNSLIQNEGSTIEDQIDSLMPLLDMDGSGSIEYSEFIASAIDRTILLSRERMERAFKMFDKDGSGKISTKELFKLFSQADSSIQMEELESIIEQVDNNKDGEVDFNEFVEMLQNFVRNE
PfPKG T618Q, sequence (Q8I719 whole entry T618Q): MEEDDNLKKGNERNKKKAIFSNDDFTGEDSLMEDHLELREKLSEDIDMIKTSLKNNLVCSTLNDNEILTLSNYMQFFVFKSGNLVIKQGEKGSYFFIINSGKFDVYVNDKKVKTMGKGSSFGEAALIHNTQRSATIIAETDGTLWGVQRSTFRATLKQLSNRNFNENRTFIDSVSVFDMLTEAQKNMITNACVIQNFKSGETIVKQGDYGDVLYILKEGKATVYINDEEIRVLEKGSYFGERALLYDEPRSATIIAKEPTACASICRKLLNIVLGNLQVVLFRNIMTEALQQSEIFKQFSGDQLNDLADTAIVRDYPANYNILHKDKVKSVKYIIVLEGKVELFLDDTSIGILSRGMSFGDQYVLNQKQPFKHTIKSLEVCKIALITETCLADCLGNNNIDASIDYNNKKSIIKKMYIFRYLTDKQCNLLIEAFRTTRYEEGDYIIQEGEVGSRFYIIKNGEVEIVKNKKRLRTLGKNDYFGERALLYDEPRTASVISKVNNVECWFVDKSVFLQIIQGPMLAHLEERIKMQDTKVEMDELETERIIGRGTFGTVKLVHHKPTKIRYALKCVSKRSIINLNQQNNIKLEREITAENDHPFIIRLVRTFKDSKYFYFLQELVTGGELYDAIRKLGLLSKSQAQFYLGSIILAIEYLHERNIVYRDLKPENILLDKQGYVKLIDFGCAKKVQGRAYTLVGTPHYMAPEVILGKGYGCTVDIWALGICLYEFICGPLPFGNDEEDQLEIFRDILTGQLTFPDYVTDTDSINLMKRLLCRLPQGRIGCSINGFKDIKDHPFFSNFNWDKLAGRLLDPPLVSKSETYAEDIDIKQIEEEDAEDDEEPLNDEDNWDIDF
T5 sequence (P62344 whole entry): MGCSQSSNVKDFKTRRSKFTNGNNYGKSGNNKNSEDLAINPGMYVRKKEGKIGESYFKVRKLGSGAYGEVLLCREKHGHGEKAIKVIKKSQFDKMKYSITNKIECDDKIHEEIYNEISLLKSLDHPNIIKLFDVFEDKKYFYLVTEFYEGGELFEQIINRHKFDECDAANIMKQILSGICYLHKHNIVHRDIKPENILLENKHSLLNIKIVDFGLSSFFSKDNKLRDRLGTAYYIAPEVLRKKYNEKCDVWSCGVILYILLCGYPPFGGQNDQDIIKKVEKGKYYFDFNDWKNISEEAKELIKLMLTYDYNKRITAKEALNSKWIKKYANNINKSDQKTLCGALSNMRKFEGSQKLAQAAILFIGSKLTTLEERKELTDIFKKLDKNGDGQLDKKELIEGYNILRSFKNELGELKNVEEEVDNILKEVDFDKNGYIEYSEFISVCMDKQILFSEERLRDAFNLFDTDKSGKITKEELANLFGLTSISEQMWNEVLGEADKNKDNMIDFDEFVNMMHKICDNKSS
T7 sequence (Q8IBS5 whole entry): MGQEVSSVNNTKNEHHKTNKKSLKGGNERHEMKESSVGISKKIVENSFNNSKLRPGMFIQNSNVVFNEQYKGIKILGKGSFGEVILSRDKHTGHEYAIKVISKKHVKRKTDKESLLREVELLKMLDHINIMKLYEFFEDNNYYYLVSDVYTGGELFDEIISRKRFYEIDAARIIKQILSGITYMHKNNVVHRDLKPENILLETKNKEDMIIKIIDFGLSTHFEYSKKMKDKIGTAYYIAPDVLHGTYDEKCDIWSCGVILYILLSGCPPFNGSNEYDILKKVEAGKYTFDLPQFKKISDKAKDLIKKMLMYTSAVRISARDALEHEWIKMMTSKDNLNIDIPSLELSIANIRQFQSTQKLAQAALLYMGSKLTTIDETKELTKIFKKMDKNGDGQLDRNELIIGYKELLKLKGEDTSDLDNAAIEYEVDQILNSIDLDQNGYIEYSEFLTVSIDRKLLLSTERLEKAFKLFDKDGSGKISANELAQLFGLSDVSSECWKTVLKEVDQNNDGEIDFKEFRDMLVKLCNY

For `O=C(c1nccs1)N1CC[C@@H](Nc2nccc(-n3cc(C4CC4)nc3-c3cccc(Cl)c3)n2)C1` [(R)-RY-1-185], the EC50 ([1]; read-out: T. gondii EC50 (±SD) CONTROL, tachyzoites, parental control of CDPK1 G128M, mean ± SD, n = 3–5) was 0.15 µM, the EC50 ([1]; read-out: T. gondii EC50 (±SD) CONTROL, tachyzoites, parental control of PKG T761Q, mean ± SD, n = 3–5) was 0.1 µM and the EC50 ([1]; read-out: T. gondii EC50 (±SD) CONTROL, tachyzoites, parental control of the double mutant, mean ± SD, n = 3–5) was 0.12 µM. For the same compound, the EC50 ([1]; read-out: average EC50 against parental parasites, parental of TgPKG T761Q) was 0.094 µM, the “increase in EC50 against TgMAPKL-1 L162Q parasites versus parental strain” value [2] was “approximately 2.75 fold” and the EC50 ([2]; Toxoplasma gondii, 72 h, read-out: T. gondii EC50 (±SD) MAPKL1 L162Q) was 0.33 µM. For the same compound, the “increase in EC50 against double mutant TgCDPK1 G128M; TgMAPKL-1 L162Q versus parental control” value [3] was 9 fold, the EC50 ([3]; Toxoplasma gondii, Fibroblast, read-out: T. gondii EC50 (±SD) CDPK1 G128M, MAPKL1 L162Q) was 1.21 µM and the EC50 [4] was 0.12 µM. The IC50 (PfPKG T618Q) was > 10 µM, the IC50 (TgCDPK1-G128M) was > 30 µM and the “TgCDPK1 G128M mutant enzyme less sensitive” value (TgCDPK1-G128M; G128M versus WT enzyme) was ≥ 600 fold. The EC50 ([5]; read-out: T. gondii EC50 (±SD) PKGT761Q) was 0.17 µM, the EC50 ([5]; read-out: average EC50 against the T761Q mutants) was 0.161 µM and the “increase in EC50, T761Q mutants versus parental” value ([5]; average) was 1.7 fold. The EC50 [6] was 6.5 µM, the IC50 (PfPKG [7]) was 0.19 µM and the IC50 (TgCDPK1 WT) was 0.06 µM. For the same compound, the EC50 [8] was 10.1 µM, the “EC50 for G128M parasites higher compared to the parental strain” value ([9]; TgCDPK1 G128M versus parental) was 1.8 fold and the EC50 ([9]; Toxoplasma gondii, Fibroblast, read-out: T. gondii EC50 (±SD) CDPK1 G128M) was 0.3 µM. For the same compound, the IC50 (CpCDPK1-G152M) was > 30 µM, the “CpCDPK1 G152M mutant enzyme less sensitive” value (CpCDPK1-G152M; G152M versus WT enzyme) was ≥ 300 × and the IC50 (PfCDPK1) was 6.69 µM. The IC50 (CpCDPK1) was 0.09 µM, the IC50 (PfCDPK4) was 2.21 µM and the EC50 [10] was 10.8 µM.
In the case of `O=C(c1nccs1)N1CC[C@H](Nc2nccc(-n3cc(C4CC4)nc3-c3ccccc3)n2)C1` [(S)-RY-1-165], the “PfPKG inhibition (in words)” value (PfPKG [11]) is listed as “inactive”.
